In patent US20260325502A1, “COMPOSITION FOR PREVENTING OR TREATING CANCER PAIN” (MARUISHI PHARMACEUTICAL CO., LTD., priority 2023, published 2026):
“Also recorded” adds a separate entry of the source.

Columns and labels:
[1] = test system: cancer pain animal models; details: pregabalin; Non-Patent Literature 2; cited from earlier work
[2] = Non-Patent Literatures 2 and 8; cited from earlier work
central nervous system = details: rats; Table 2 in Non-Patent Literature 9; cited from earlier work
[3] = test system: cancer pain model rats (MRMT-1 rat breast cancer cells, bone metastasis model); experiment: Measurement of pain threshold in bone metastasis cancer pain model rats (Dynamic Plantar Aesthesiometer); type: in vivo, Crl:CD (SD); details: 10 mg/kg and 30 mg/kg, oral
Method: Five-week-old female Crl:CD (SD) SPF rats (Charles River Japan) were injected with MRMT-1 cells (rat breast cancer cells) at 3×10^4 cells/20 μL/body into the medullary cavity at the proximal end of the diaphysis of the right tibia to create a bone metastasis model (day 0). On day 10 after the transplantation of the cancer cells (day 10), the rats were divided into 4 groups of 8 rats each: a control group (with administration of distilled water (trade name: Otsuka Distilled Water) manufactured by Otsuka Pharmaceutical Factory, Inc.), a 10 mg/kg compound A administration group, a 30 mg/kg compound A administration group, and a morphine administration group, as shown in Table 1 below. On day 11 after the transplantation of the cancer cells (day 11), each drug was orally or subcutaneously administered to the rats at a dose of 2 mL/kg. The pain threshold (g) of the plantar surface of the right hind paw was measured using a Dynamic Plantar Aesthesiometer (37450, Ugo Basile) under blinded conditions 1, 3, 6, and 24 hours after the administration. The average value of the pain threshold-time area under the curve (AUC) (g·hr) for 24 hours post-administration was determined for each group.

mice = experiment: Measurement of spontaneous locomotor activity (Supermex); type: in vivo, mouse, ICR
Method: Five-to six-week-old male ICR-SPF mice (Japan SLC, Inc.) were divided into 5 groups of 8 mice each: a control group (with administration of distilled water (trade name: Otsuka Distilled Water) manufactured by Otsuka Pharmaceutical Factory, Inc.), two 10 mg/kg compound A administration groups, and two 30 mg/kg compound A administration groups, as shown in Table 2 below. Compound A or distilled water at a dose of 10 mL/kg was orally administered to the mice. One or three hours after the administration of compound A or distilled water, the mice were transferred to a measurement cage, and spontaneous locomotor activity was measured for 30 minutes using Supermex (registered trademark) (Muromachi Kikai Co., Ltd.).

rats = experiment: Measurement of coordinated motor ability (rotarod); type: in vivo, rat, SD
Method: Five- to six-week-old male SD-SPF rats (Japan SLC, Inc.) were used in this experiment. The experimental schedule included training using a rotarod (SN445, Shinano Seisakusyo) for 3 days (6 times a day), starting from 3 days before the day of administration. On the day of administration, pre-values (time to stay on the rotarod before the administration of compound A or distilled water) were measured twice, and the rats that spent 180 seconds or more on the rotarod in either of the two measurements were selected. The rats were divided into 3 groups of 6 rats each: a control group (with administration of distilled water (trade name: Otsuka Distilled Water) manufactured by Otsuka Pharmaceutical Factory, Inc.), a 10 mg/kg compound A administration group, and a 30 mg/kg compound A administration group, as shown in Table 3 below. Compound A or distilled water was orally administered to the rats at a dose of 10 mL/kg, and the time to stay on the rotarod was measured 1, 3, 6, and 24 hours after the administration under the test conditions of 10 rotations/min with a cutoff of 180 seconds.

serotonin 3 receptor = details: Patent Literatures 1 and 2; cited from earlier work
[4] = summary of Experiments 1 and 2, 10 to 30 mg/kg

| Structure (SMILES) | effect in cancer pain animal models [1] | side effects [2] | influence on central nervous system relative to analgesic dose (central nervous system) | cancer pain threshold compared to control group ([3]; single dose, right hind paw, measured 1, 3, 6 and 24 h after administration, Dunnett's test, critical value of 1%, n = 8, FIG. 1) | pain threshold-time area under the curve (AUC) compared to subcutaneous morphine ([3]; versus morphine 3 mg/kg subcutaneous, up to 24 h after administration) | changes in spontaneous locomotor activity compared to control group (mice; 10 mg/kg and 30 mg/kg, oral, 1 or 3 h after administration, measured for 30 min, Dunnett's test, critical value of 5%, n = 8, FIG. 2) | suppression of spontaneous locomotor activity at a dose that induces an analgesic effect (mice; [4]) | changes in coordinated motor ability (time to stay on the rotarod) compared to control group (rats; 10 mg/kg and 30 mg/kg, oral, 1, 3, 6 and 24 h after administration, 10 rotations/min, cutoff 180 s, Dunnett's or Steel's test, critical value of 5%, n = 6, FIG. 3) | suppression of coordinated motor ability at a dose that induces an analgesic effect (rats; [4]) | activity at serotonin 3 receptor (serotonin 3 receptor) |
| --- | --- | --- | --- | --- | --- | --- | --- | --- | --- | --- |
| CC(C)C[C@H](CN)CC(=O)O [Pregabalin] | effective in cancer pain animal models | sedative effects such as dizziness, drowsiness, and loss of consciousness | suppresses the functions of the central nervous system (inhibits coordinated motor ability) at a dose lower than that is required to exert an analgesic effect | – | – | – | – | – | – | – |
| NC1CCN(c2cccc(Cl)n2)CC1 [compound A, 1-(6-chloropyridin-2-yl) piperidin-4-amine] | – | – | – | significant difference was observed; also recorded: significantly increased | no statistically significant difference | No statistical difference was observed; also recorded: no significant changes | does not suppress spontaneous locomotor activity | No statistically significant difference was observed; also recorded: no significant changes | does not suppress spontaneous locomotor activity or coordinated motor ability | serotonin 3 receptor agonist |
